# From patent US20260240792A1, “COMPOSITIONS FOR TREATING 5-HT2 CONDITIONS AND METHODS OF USING THE SAME” (Board of Supervisors of Louisiana State University and …, priority 2022, published 2026)
# “Also recorded” adds a separate entry of the source.
# Test system: rabbits
# Assay: Tear film production by Schirmer's Tear Flo Strips in rabbits
# Assay type: in vivo, rabbit
# Description: Each eye of each rabbit was assessed for tear film production by Schirmer's Tear Flo Strips at a 30 second interval of analysis. Tear measures were evaluated by a digital caliper to determine mm of tears collected.
# 3 days post treatment at the same time initial measures were made, IOP and tear film production were re-assessed to examine if effects were sustained post 1 treatment.
# (§1) Effects of Compound 1 on Tear Production: Current IOP lowering glaucoma drugs eventually have effects on tear production resulting in dry eye conditions. Further, there are additional associations between dry eye and glaucoma, with co-incidence of the two conditions quite common. […] Selective 5-HT agonists/antagonists can reverse symptoms of dry eye-a very large ophthalmic market. The effects of Compound 1 on tear film production (see, for example, FIG. 6 panels A-D) were therefore assessed by a Schirmer's Tear Flo strip and measured using a digital micrometer caliper.
# • Rabbits were assessed for clinically clear eyes by slit lamp ophthalmic scoring. All eyes of all rabbits were normal. • Each eye of each rabbit was then assessed for initial IOP by tonometer. • Each eye of each rabbit was assessed for tear film production by Schirmer's Tear Flo Strips at a 30 second interval of analysis. Tear measures were evaluated by a digital caliper to determine mm of tears collected. • Rabbits were sorted into two groups attempting to balance IOP numbers (one higher, one lower animal per group). • Following animals were treated with 50 μL of Control ophthalmic BSS/0.5% CMC or 0.01% R-DOI HCl in ophthalmic BSS/0.5% CMC. • Any apparent behavioral changes were continuously monitored over the next 2.5 hours. • IOP determinations were made at 30 minutes, 1 hour, 2 hours and 3 hours, 5 hours, 7 hours and 24 hours-eyes were examined closely for any adverse effects during these IOP measures. • 7 hours post treatment when IOP returned to control levels tear film production was assessed (see, for example, FIG. 9).
# as §1, with “R-DOI” for “Compound 1”, “conditions” for “conditions quite”, “production” for “production (see, for example, FIG. 6 panels A-D)”
smiles,measurement,setting,value
"COc1cc(C[C@@H](C)N)c(OC)cc1I [R-DOI, (R)-1-(2,5-dimethoxy-4-iodophenyl)-2-aminopropane]",average increase in tear film production,"0.01% single dose, 7 h post treatment",2.27 mm
same,tear production as measured by Schirmer's test,topical ocular dose,increased tear production relative to initial and control treatment; also recorded: significant increase in tear production
